Measurements reported in patent EP2236138A1 (priority 2009, dated 2010).
One block for each compound: values may come before it.

Assays:
Alpha2A = target: T1, Alpha2A (Homo sapiens, UniProt P08913); test: pKi values of test compounds, Alpha2A (Table 1); type: binding
T1 sequence (P08913 1-465): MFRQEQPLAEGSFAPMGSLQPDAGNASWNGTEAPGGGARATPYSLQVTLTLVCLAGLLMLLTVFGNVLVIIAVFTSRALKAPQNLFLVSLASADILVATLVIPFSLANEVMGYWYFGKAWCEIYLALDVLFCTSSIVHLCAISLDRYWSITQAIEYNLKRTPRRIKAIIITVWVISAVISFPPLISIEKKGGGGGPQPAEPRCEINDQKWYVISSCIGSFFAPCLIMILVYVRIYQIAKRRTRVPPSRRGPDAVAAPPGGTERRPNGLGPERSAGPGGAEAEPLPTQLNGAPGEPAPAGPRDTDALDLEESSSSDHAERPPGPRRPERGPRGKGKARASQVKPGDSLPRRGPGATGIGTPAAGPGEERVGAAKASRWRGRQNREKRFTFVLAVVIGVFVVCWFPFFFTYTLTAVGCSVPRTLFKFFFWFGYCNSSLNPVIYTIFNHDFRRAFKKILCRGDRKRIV

5HT1B = 5HT1B (Homo sapiens, UniProt P28222); test: biochemical; type: binding
5HT1B, sequence (P28222 whole entry): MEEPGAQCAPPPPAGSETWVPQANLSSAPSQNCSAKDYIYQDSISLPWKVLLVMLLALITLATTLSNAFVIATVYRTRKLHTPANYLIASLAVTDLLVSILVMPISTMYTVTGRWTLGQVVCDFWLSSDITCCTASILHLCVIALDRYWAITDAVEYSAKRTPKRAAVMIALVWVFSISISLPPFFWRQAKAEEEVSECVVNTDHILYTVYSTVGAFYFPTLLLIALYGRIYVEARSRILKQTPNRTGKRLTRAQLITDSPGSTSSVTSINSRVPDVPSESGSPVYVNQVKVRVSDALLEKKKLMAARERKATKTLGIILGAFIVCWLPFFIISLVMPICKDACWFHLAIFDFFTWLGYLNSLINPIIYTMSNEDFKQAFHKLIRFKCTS

5HT2B = 5HT2B (Homo sapiens, UniProt P41595); test: pKi values of test compounds, 5HT2B (Table 1); type: binding
5HT2B, sequence (P41595 whole entry): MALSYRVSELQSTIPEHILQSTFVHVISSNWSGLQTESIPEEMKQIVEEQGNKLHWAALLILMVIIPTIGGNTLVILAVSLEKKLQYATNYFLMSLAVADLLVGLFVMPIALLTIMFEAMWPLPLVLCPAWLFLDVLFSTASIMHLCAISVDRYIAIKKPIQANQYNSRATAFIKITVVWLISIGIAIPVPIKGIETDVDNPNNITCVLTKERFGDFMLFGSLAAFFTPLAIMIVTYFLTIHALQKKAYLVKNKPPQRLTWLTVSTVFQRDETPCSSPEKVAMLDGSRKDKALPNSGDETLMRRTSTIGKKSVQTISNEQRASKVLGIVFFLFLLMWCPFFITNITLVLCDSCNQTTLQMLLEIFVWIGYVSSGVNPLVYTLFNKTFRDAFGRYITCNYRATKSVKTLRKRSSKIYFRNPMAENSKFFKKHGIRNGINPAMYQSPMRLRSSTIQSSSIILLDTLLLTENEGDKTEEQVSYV

D3 = D3 (Homo sapiens, UniProt P35462); test: biochemical; type: binding
D3, sequence (P35462 whole entry): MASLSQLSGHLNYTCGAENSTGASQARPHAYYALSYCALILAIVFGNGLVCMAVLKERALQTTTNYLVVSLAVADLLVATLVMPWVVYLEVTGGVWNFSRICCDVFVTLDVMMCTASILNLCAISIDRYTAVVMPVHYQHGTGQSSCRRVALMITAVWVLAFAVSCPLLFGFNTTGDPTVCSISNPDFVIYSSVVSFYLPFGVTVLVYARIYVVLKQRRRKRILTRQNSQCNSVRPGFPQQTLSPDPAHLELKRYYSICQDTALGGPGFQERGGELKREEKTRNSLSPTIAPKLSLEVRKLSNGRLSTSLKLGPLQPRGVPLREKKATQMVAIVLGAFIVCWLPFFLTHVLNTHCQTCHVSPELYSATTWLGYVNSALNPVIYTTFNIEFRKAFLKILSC

5HT1D = 5HT1D (Homo sapiens, UniProt P28221); test: biochemical; type: binding
5HT1D, sequence (P28221 whole entry): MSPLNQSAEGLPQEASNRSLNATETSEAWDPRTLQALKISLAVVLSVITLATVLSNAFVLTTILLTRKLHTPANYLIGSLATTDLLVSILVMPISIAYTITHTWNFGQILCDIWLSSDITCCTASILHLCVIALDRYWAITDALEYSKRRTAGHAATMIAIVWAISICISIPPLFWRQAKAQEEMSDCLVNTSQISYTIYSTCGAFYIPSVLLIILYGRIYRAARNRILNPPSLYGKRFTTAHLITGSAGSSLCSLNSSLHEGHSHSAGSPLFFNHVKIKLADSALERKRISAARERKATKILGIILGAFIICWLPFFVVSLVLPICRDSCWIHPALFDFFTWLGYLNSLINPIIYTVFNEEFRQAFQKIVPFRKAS

other dopamine receptors = test: pKi value towards other dopamine receptors; type: binding
[1] = test system: patients with major depression; test: Semi-naturalistic open label study of combo pipamperone-citalopram in major depression; type: in vivo
Description: Design: Semi-naturalistic i.e. inclusion of every 'natural' patient in an outpatient practice but without concomitant use of mood enhancing drugs, open label
Phase: Phase Ila - preliminary Proof of Concept
Location: Belgium - Research Centre ANIMA, Alken
End Points : Assessment scale scores, Hamilton Depression Rating Scale 17 items, Reduction, Response, Remission
Medication: Exclusion of mood stabilisers, antipsychotics (typical and atypical) and other antidepressants […]
Adverse events are assessed on: body as a whole, central and peripheral nervous system, gastrointestinal, musculoskeletal, psychiatric, respiratory, skin and appendages, vascular and urinary, taking into account discontinued treatment due to adverse events. Laboratory parameters, ECG, bodyweight and vital signs are not measured since this is a naturalistic study.

other 5HT receptors = test: pKi value towards other 5HT receptors; type: binding
Beta2 = Beta2 (Homo sapiens, UniProt P07550); test: pKi values of test compounds, Beta2 (Table 1); type: binding
Beta2, sequence (P07550 whole entry): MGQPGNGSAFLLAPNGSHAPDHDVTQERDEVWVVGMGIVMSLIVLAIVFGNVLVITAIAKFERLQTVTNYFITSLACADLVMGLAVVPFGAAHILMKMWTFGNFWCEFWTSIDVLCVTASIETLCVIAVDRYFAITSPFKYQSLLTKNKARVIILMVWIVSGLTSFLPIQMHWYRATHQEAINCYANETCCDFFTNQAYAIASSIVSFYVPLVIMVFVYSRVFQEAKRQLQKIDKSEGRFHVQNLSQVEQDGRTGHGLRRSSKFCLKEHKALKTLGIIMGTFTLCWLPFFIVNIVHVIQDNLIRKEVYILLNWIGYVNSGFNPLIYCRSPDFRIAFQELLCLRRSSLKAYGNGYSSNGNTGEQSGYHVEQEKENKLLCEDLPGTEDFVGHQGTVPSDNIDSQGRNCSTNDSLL

5HT2C = target: T2, 5HT2C (Homo sapiens, UniProt P28335); type: binding
T2 sequence (P28335 33-458): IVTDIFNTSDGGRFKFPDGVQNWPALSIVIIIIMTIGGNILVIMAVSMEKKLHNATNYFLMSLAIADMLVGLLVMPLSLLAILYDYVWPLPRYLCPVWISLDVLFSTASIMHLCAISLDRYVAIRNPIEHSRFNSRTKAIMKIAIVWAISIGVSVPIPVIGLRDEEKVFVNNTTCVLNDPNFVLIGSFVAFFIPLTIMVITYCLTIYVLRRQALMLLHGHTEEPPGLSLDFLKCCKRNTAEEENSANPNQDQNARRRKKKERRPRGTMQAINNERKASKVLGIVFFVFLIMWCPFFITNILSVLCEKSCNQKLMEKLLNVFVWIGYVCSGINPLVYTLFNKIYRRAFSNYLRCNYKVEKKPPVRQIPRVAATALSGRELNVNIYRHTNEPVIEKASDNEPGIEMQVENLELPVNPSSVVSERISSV

5HT6rat = 5HT6rat (Rattus norvegicus, UniProt P31388); test: pKi values of test compounds, 5HT6 rat (Table 1); type: binding
5HT6rat, sequence (P31388 whole entry): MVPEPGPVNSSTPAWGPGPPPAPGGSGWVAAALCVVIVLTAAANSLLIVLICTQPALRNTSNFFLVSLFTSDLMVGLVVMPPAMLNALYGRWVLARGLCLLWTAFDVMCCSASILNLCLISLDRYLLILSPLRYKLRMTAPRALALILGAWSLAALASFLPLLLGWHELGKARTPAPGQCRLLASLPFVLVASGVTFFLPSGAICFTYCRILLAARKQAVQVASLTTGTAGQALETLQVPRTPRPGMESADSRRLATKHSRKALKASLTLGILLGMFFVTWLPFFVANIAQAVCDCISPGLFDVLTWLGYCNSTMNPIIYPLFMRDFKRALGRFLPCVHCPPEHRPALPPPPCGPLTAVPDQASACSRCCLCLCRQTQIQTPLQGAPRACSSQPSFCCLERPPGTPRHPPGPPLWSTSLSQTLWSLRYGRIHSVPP

Beta1 = Beta1 (Homo sapiens, UniProt P08588); test: pKi values of test compounds, Beta1 (Table 1); type: binding
Beta1, sequence (P08588 whole entry): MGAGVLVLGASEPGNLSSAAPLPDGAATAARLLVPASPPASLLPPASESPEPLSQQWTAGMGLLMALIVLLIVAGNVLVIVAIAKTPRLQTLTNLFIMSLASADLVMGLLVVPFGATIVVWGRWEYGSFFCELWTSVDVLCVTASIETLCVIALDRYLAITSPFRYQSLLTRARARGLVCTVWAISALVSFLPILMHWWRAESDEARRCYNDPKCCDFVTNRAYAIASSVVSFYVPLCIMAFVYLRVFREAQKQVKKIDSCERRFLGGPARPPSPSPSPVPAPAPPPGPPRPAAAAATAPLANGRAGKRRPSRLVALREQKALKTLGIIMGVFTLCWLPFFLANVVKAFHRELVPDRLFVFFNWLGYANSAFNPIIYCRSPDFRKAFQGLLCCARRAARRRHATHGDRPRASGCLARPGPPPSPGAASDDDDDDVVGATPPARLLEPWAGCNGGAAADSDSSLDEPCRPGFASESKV

D2 = D2 (Homo sapiens, UniProt P14416); type: binding
D2, sequence (P14416 whole entry): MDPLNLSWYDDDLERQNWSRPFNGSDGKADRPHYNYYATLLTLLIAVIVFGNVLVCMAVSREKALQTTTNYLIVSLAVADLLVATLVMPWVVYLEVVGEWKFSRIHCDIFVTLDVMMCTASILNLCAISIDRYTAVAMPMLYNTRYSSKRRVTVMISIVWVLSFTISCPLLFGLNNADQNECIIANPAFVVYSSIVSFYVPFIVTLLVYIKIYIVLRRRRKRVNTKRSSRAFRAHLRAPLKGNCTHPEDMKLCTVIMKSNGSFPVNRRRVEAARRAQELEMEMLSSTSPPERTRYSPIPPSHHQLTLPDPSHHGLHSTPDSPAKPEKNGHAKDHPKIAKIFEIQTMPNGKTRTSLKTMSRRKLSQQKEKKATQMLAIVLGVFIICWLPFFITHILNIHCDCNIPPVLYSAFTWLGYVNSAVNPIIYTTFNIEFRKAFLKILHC

D1 = D1 (Homo sapiens, UniProt P21728); type: binding
D1, sequence (P21728 whole entry): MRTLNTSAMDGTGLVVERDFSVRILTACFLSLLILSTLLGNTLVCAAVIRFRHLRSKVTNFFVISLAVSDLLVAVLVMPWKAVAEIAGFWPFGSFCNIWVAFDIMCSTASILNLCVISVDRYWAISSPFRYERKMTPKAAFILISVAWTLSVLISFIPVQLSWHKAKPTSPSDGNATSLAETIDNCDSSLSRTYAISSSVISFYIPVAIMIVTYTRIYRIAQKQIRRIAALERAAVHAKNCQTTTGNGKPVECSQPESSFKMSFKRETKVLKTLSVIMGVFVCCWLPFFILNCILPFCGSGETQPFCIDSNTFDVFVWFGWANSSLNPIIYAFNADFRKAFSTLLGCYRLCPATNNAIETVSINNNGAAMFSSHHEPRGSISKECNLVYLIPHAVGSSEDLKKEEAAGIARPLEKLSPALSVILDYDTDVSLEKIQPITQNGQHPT

5HT1A = target: T3, 5HT1A (Homo sapiens, UniProt P08908); type: binding
T3 sequence (P08908 1-422): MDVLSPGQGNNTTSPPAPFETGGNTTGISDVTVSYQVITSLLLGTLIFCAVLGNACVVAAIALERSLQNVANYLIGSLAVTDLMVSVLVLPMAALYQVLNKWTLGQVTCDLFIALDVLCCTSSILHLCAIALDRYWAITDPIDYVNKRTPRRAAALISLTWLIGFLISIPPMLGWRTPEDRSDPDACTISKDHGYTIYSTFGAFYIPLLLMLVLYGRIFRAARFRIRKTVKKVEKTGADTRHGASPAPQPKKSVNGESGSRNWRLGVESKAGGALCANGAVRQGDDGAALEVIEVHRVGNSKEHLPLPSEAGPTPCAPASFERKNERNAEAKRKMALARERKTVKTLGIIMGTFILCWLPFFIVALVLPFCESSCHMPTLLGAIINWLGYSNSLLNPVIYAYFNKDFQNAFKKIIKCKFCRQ

Alpha1A = target: T4, Alpha1A (Homo sapiens, UniProt P35348); type: binding
T4 sequence (P35348 1-466): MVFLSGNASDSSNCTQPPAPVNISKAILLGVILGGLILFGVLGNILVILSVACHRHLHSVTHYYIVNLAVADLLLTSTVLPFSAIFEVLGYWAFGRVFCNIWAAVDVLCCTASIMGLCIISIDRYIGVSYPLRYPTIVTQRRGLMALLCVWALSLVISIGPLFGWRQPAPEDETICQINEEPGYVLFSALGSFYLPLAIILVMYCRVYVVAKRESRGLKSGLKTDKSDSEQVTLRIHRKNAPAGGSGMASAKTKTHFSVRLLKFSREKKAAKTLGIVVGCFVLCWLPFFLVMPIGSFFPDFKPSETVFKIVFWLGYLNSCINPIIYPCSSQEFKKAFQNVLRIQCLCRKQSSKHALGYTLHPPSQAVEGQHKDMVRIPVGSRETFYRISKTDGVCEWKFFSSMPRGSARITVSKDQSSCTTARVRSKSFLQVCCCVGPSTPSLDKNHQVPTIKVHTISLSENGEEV

SMILES: OC1(c2ccc(Cl)cc2)CCN(Cc2c[nH]c3ccccc23)CC1 [L741626]
Ki (Alpha2A): > 1000 nM
Ki (5HT1B; read-out: pKi 5HT1B (converted)): > 1000 nM
Ki (5HT2B): 100 to 1000 nM
Ki (D3): 10 to 100 nM
Ki (5HT1D): > 1000 nM

pKi value towards other dopamine receptors (other dopamine receptors): less than 8
pKi value towards other 5HT receptors (other 5HT receptors): less than 8
SMILES: NC(=O)C1(N2CCCCC2)CCN(CCCC(=O)c2ccc(F)cc2)CC1 [Pipamperon, 1'-[3-(p-Fluorobenzoyl)propyl]-[1,4'-bipiperidine]-4'-carboxamide]
Sedative effects of pipamperone ([1]; major depression study, pipamperone 2-4 mg/day): lacking
boosting effect of pipamperone on a SSRI, in this case citalopram ([1]; major depression, pipamperone 2-4 mg/day + citalopram 20-40 mg/day PO, 8 weeks): apparent

pKi Beta2 (Beta2): <6
pKi 5HT2C (5HT2C): <6
pKi 5HT6rat (5HT6rat): 6-7
pKi Beta1 (Beta1): <6
pKi D3 (D3): 7-8
pKi D2 (D2): 7-8
SMILES: O=C(C[C@H]1CCN(CCOc2cccc3c2OCCO3)C1)c1ccc(F)cc1 [S16924]

SMILES: N#Cc1ccc2c(c1)[C@H]1CN(CCCCNC(=O)c3ccc(-c4ccccc4)cc3)C[C@@H]1CO2 [S33084]
pKi Alpha2A (Alpha2A): <6
pKi 5HT1B (5HT1B): 6-7
pKi D1 (D1): 6-7
pKi 5HT2C (5HT2C): 7-8
pKi 5HT1A (5HT1A): <6
pKi 5HT2B (5HT2B): 6-7
pKi Alpha1A (Alpha1A): 6-7
pKi D2 (D2): 7-8
pKi 5HT1D (5HT1D): 6-7
